# Reference: patent publication US12012404B2, “Pyrimidoheterocyclic compounds and application thereof” (D3 BIO (WUXI) CO., LTD., priority 2020, dated 2024)
# How the values were obtained:
# Type in all cases: in vitro ADME
# [1] = In vitro stability in liver microsomes, SD rats; conditions: 0.5 mg/mL
# Protocol: (§1) Purpose of the assay: Metabolic stabilities of the assay compounds in liver microsomes of CD-1 mice, SD rats, beagle dogs, cynomolgus monkeys, and human were assayed, respectively.
# (§2) Procedure of the assay: Two 96-well incubation plates were prepared and named T60 incubation plate and NCF60 incubation plate, respectively. 445 μL of microsomal working solutions (liver microsomal protein concentration of 0.56 mg/mL) were added to the T60 incubation plate and the NCF60 incubation plate, respectively, and then the above incubation plates were pre-incubated in a 37° C. water bath for about 10 minutes.
# (§3) After the pre-incubation, 5 μL of working solutions of the assay sample or the control compound were added to the T60 incubation plate and the NCF60 incubation plate, respectively, and the mixture was mixed well. 50 μL of potassium phosphate buffer was added to each well of the NCF60 incubation plate to initiate the reaction. 180 μL of stop solution (200 ng/mL tolbutamide and 200 ng/mL labetalol in acetonitrile) and 6 uL of NADPH regeneration system working solution were added to the T0 stop plate, and 54 μL of sample was transferred from T60 incubation plate to T0 stop plate (generation of TO sample). The reaction was initiated by adding 44 μL of NADPH regeneration system working solution to each well of the T60 incubation plate. Only 54 μL of microsome working solution, 6 uL of NADPH regeneration system working solution and 180 μL of stop solution were added to the Blank plate. Therefore, in samples of the assay compound or the control compound, the final reaction concentration of compound, testosterone, diclofenac and propafenone was 1 μM, the concentration of liver microsomes was 0.5 mg/mL, and the final reaction concentrations of DMSO and acetonitrile in the reaction system were 0.01% (v/v) and 0.99% (v/v), respectively.
# (§4) After an appropriate time (e.g., 5, 15, 30, 45 and 60 minutes) of incubation, 180 μL of stop solutions (200 ng/mL tolbutamide and 200 ng/mL labetalol in acetonitrile) were added to the sample wells of each stop plate, respectively. 60 μL of sample was removed from the T60 incubation plate to stop the reaction. All sample plates were shaken well and then centrifuged at 3220×g for 20 minutes. Then 80 μL of supernatant was taken out from each well, and diluted in 240 μL of pure water for liquid chromatography-tandem mass spectrometry analysis. All samples were injected and analyzed by liquid chromatography-tandem mass spectrometry.
# [2] = Stability assay in whole blood, cynomolgus monkeys; conditions: 5 μM, 37° C.
# Protocol: Purpose of the assay: Stabilities of the assay compounds in whole blood of CD-1 mice, SD rats, Beagle dogs and cynomolgus monkeys were assayed, respectively.
# Procedure of the assay: On the day of the assay or the day before the assay, fresh whole blood from CD-1 mice, SD rats, beagle dogs, and cynomolgus monkeys was collected using anticoagulant EDTA-K2. Prior to the start of the assay, the whole blood was mixed with PBS in 1:1 (v:v) and the mixture was preheated in a 37° C. water bath for 10-20 minutes. […] […] All samples were incubated in a 37° C. water bath. The final incubation concentration of the compound was 5 μM and the final incubation concentration of the control compound was 2 μM. At the end of incubation for each time point, the corresponding incubation plate was removed and 100 μL of ultrapure water was immediately added to the corresponding sample wells, and mixed well. 800 μL of a solution of 200 ng/mL tolbutamide and labetalol in acetonitrile was added to precipitate the protein. The sample plates were sealed and shaken well, and then centrifuged at 3220×g for 20 min. 150 μL of supernatant was taken out and analyzed by LC/MS/MS.
# [3] = In vitro stability in liver microsomes, human; conditions: 0.5 mg/mL
# Protocol: as §1, §2, §3, §4
# [4] = system: plasma protein of CD-1 mice; experiment: Protein binding rate by equilibrium dialysis, CD-1 mice plasma; conditions: for Protein unbound rate: CD-1 mice plasma, 2 μM, dialysis 4 hours
# Protocol: Purpose of the assay: Protein binding rate of the assay compounds in plasma of CD-1 mice, SD rats, beagle dogs, cynomolgus monkeys and human was determined by equilibrium dialysis.
# Procedure of the assay: Plasma samples with a compound concentration of 2 μM were prepared using plasma of the above five species, placed in a 96-well equilibrium dialysis device, and dialyzed with phosphate buffer solution at 37±1° C. for 4 hours. Warfarin was used as the control compound in this assay. The concentrations of the assay compounds in plasma and dialysis buffer were determined by LC-MS/MS method.
# [5] = Stability assay in plasma, human; conditions: 2 μM, 37° C.
# Protocol: (§5) Purpose of the assay: Stabilities of the assay compounds in plasma of CD-1 mice and human were assayed, respectively.
# (§6) Procedure of the assay: Cryopreserved plasma was thawed for 10-20 min. After the plasma was completely thawed, it was placed in a centrifuge and centrifuged at 3220×g for 5 min to remove any suspended matter and sediment in the plasma. 96-well incubation plates were prepared and named TO, T10, T30, T60, T120, respectively. 98 μL of blank plasmas of mouse, rat, canine, monkey and human were added to the corresponding incubation plates, then 2 μL of working solutions of the compound or the control compound were added to the corresponding plates in duplicate. All samples were incubated in a 37° C. water bath. The final incubation concentrations of the compound and the control compounds bisacodyl, enalapril maleate, procaine and probanthine were 2 μM, and the final organic phase content was 2.0%. At the end of incubation for each time point, the corresponding incubation plate was removed and 400 μL of a solution of 200 ng/mL of tolbutamide and labetalol in acetonitrile was added to each corresponding sample well to precipitate the protein. All sample plates were sealed and shaken well, and then centrifuged at 3220×g for 20 minutes. 50 μL of supernatant was taken out and diluted in 100 μL of ultrapure water. All samples were mixed well and then analyzed by LC/MS/MS.
# [6] = Stability assay in plasma, CD-1 mice; conditions: CD-1 mice plasma, 2 μM, 37° C.
# Protocol: as §5, §6
# [7] = In vitro stability in liver microsomes, cynomolgus monkeys; conditions: 0.5 mg/mL
# Protocol: as §1, §2, §3, §4
CLint(liver) ([1]; 1 μM) [mL/min/kg],T1/2 ([1]; 1 μM) [min],CLint(liver) ([3]; 1 μM) [mL/min/kg],T1/2 ([3]; 1 μM) [min],"Plasma protein unbound rate PPB (Unbound %) ([4]; mice, as listed in PK Table 9) [%]",CLint(liver) ([7]; 1 μM) [mL/min/kg],T1/2 ([7]; 1 μM) [min],Structure (SMILES),CLint(mic) ([1]; 1 μM) [µL/min/mg],Detection of assay compound content within 120 min [2] [%],CLint(mic) ([3]; 1 μM) [µL/min/mg],Protein unbound rate [4],Detection of assay compound content within 120 min [5] [%],Detection of assay compound content within 120 min [6] [%],CLint(mic) ([7]; 1 μM) [µL/min/mg],CLint scaled at 1 μM ([1]; rat) [mL/min/kg],half-life at 1 μM ([1]; rat) [min],CLint scaled at 1 μM [3] [mL/min/kg],half-life at 1 μM [3] [min],CLint scaled at 1 μM ([7]; cynomolgus monkey) [mL/min/kg],half-life at 1 μM ([7]; cynomolgus monkey) [min]
<17.3,>145,20.7,60.3,12.0,80.3,23.3,"C=C(F)C(=O)N1CCN(c2nc(OCC3CCCN3C)nc3c2COC(c2c(F)c(N)cc(C)c2C(F)(F)F)C3)CC1CC#N.Cl (single isomer, unassigned) [Compound 8B hydrochloride]",< 9.6,58,23,12.0,114,110,59.5,,,,,,
,,,,,,,C=C(F)C(=O)N1CCN(c2nc(OC[C@@]34CCCN3C[C@H](F)C4)nc3c2COC(c2c(F)c(N)cc(C)c2C(F)(F)F)C3)C[C@@H]1CC#N (stereo partly drawn) [Compound 17],60.2,77,67.9,1.5,93,94,225,108,23,61.1,20.4,303,6.2
